From US10168342B2, “Lipid probes and uses thereof” (THE SCRIPPS RESEARCH INSTITUTE, priority 2015, dated 2019)
Read-outs that look alike come from different tables or passages of the source.

Experiments:
[1] = biological target: AEA-DA lipid probe targets in Neuro2a cells (Mus musculus, UniProt P62821)
[2] = biological target: AEA-DA lipid probe targets in Neuro2a cells (Mus musculus, UniProt Q8JZU2)
[3] = biological target: T1, AEA-DA lipid probe targets in Neuro2a cells (Mus musculus, UniProt Q8BTX9)
T1 sequence (Q8BTX9 1-330): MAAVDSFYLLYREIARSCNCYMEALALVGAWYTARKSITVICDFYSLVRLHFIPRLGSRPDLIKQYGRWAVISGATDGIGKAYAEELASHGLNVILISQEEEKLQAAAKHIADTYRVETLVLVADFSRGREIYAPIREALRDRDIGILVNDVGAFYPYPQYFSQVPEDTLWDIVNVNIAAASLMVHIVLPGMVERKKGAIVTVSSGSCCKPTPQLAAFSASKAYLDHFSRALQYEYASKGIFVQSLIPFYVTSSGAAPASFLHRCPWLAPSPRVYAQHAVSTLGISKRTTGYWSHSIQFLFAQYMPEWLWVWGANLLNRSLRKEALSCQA

[4] = biological target: AEA-DA lipid probe targets in Neuro2a cells (Mus musculus, UniProt Q64310)
Chain of AEA-DA lipid probe targets in Neuro2a cells (Mus musculus, UniProt Q64310) (Q64310 whole entry): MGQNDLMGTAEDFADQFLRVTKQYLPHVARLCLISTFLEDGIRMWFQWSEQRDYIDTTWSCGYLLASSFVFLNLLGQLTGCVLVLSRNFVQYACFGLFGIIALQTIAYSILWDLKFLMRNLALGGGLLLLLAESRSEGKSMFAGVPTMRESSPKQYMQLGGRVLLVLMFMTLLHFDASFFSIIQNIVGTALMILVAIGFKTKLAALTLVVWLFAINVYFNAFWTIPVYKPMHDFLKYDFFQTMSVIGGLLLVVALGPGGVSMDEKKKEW

[5] = biological target: T2, AEA-DA lipid probe targets in Neuro2a cells (Mus musculus, UniProt Q8BGC4)
T2 sequence (Q8BGC4 1-377): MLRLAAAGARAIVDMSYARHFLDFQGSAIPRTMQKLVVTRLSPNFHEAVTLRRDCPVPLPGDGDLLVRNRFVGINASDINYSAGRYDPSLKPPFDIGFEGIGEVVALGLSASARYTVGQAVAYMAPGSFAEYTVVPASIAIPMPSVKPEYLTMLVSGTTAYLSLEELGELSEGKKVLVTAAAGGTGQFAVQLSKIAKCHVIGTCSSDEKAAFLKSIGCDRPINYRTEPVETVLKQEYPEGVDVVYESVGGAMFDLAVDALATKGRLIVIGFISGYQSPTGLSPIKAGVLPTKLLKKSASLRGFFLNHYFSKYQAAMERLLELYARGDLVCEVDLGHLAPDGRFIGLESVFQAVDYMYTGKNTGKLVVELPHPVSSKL

[6] = biological target: T3, AEA-DA lipid probe targets in Neuro2a cells (Mus musculus, UniProt Q8R404)
T3 sequence (Q8R404 1-119): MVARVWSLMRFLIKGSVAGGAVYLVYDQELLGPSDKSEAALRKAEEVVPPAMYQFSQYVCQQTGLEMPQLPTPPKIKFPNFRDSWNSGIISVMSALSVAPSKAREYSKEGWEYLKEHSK

[7] = biological target: T4, AEA-DA lipid probe targets in Neuro2a cells (Mus musculus, UniProt Q8VBZ3)
T4 sequence (Q8VBZ3 1-664): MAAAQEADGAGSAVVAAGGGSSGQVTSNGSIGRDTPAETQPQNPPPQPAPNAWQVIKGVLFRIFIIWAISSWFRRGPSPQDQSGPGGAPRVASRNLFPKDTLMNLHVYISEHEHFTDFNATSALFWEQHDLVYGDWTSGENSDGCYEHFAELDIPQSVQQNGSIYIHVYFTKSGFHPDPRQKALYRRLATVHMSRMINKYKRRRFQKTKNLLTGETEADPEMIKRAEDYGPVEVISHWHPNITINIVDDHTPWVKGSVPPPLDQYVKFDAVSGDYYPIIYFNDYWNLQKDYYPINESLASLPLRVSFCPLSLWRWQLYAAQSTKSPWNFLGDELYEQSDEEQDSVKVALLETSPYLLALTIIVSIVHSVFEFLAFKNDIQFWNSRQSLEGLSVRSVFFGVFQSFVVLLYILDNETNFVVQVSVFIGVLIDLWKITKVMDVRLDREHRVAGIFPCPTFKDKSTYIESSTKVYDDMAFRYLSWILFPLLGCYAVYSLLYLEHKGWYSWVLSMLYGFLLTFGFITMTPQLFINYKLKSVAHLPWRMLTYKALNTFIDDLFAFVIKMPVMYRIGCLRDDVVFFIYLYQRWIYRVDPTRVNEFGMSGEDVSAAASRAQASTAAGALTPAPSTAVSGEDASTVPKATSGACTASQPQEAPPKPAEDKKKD

[8] = biological target: T5, AEA-DA lipid probe targets in Neuro2a cells (Mus musculus, UniProt Q8K411)
T5 sequence (Q8K411 16-1036): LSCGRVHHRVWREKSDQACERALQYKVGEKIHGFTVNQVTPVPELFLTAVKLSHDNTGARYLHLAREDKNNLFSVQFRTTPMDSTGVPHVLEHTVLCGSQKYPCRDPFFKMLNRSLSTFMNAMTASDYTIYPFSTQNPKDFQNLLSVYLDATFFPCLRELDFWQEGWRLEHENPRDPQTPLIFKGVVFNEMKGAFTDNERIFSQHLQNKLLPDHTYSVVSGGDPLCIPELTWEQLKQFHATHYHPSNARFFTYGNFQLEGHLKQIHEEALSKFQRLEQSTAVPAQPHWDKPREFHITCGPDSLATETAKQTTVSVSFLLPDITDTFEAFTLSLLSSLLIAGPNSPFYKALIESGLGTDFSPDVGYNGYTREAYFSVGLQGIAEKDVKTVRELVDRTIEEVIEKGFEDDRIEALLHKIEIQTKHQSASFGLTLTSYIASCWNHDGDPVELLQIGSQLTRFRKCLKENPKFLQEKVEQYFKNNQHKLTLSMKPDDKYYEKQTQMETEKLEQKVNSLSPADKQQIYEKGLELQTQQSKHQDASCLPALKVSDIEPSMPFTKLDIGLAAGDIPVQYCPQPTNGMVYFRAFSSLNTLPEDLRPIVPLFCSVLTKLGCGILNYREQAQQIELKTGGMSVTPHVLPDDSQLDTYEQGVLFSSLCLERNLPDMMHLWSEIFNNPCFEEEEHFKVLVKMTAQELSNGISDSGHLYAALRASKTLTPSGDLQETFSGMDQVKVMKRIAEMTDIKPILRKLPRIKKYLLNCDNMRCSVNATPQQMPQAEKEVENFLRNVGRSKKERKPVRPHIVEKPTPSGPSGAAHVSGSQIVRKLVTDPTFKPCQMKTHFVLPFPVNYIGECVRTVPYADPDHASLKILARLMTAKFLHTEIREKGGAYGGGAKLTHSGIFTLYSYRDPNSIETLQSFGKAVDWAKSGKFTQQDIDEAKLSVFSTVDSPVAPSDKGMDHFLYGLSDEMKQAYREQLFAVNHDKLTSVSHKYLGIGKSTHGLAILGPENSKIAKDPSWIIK

Chain of AEA-DA lipid probe targets in Neuro2a cells (Mus musculus, UniProt P62821) (P62821 whole entry): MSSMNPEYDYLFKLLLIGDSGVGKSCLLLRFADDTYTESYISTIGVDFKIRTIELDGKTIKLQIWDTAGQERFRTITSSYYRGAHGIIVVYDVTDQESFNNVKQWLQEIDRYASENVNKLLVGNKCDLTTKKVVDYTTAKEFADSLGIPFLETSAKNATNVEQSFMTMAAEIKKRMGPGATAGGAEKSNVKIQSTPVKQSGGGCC
Chain of AEA-DA lipid probe targets in Neuro2a cells (Mus musculus, UniProt Q8JZU2) (Q8JZU2 14-311): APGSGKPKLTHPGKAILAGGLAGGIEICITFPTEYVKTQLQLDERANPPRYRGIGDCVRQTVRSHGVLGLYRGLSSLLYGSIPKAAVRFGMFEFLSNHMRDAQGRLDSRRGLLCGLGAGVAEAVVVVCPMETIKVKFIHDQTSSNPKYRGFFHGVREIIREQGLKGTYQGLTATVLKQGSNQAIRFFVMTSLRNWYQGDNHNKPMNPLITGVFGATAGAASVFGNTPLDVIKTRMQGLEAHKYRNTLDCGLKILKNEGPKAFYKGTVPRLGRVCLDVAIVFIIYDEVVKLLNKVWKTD

`CCCCC/C=C\C/C=C\C/C=C\C/C=C\CCCC(=O)NCCO` [AEA, anandamide, reference compound] was tested, and the “SILAC ratio Rab1A” value ([1]; competitor 200 μM) was 1.2, the “SILAC ratio Slc25a1” value ([2]; competitor 200 μM) was 1.2 and the “SILAC ratio, Hsdl1” value ([3]; competitor 200 μM) was 2.5. The “SILAC ratio Surf4” value ([4]; competitor 200 μM) was 1.4, the “SILAC ratio, Zadh2” value ([5]; competitor 200 μM) was 4.8 and the “SILAC ratio, Qil1” value ([6]; competitor 200 μM) was 1.9. The “SILAC ratio, Clptm1” value ([7]; competitor 200 μM) was 2.3 and the “SILAC ratio, Pitrm1” value ([8]; competitor 200 μM) was 2.1.
With `C=CCN(C)CCCCCCOc1ccc(C(=O)c2ccc(Br)cc2)c(F)c1` [Ro 48-8071, reference compound] the “SILAC ratio Rab1A” value ([1]; competitor 25 μM) was 1.0, the “SILAC ratio Slc25a1” value ([2]; competitor 25 μM) was 1.0 and the “SILAC ratio, Hsdl1” value ([3]; competitor 25 μM) was 0.9. The “SILAC ratio Surf4” value ([4]; competitor 25 μM) was 1.1, the “SILAC ratio, Zadh2” value ([5]; competitor 25 μM) was 1.0 and the “SILAC ratio, Qil1” value ([6]; competitor 25 μM) was 1.2. The “SILAC ratio, Clptm1” value ([7]; competitor 25 μM) was 1.2 and the “SILAC ratio, Pitrm1” value ([8]; competitor 25 μM) was 1.0.
In the case of `CN1CCN(C(=O)c2c(-c3ccccc3)c3cc([N+](=O)[O-])ccc3n2C)CC1` [KML110, (1-Methyl-5-nitro-3-phenyl-1H-indol-2-yl)(4-methylpiperazin-1-yl)methanone], the “SILAC ratio Rab1A” value ([1]; competitor 25 μM) is reported as 1.3, the “SILAC ratio Slc25a1” value ([2]; competitor 25 μM) is reported as 1.2 and the “SILAC ratio, Hsdl1” value ([3]; competitor 25 μM) is reported as 1.4. The “SILAC ratio Surf4” value ([4]; competitor 25 μM) was 1.4, the “SILAC ratio, Zadh2” value ([5]; competitor 25 μM) was 1.5 and the “SILAC ratio, Qil1” value ([6]; competitor 25 μM) was 1.5. The “SILAC ratio, Clptm1” value ([7]; competitor 25 μM) was 1.5 and the “SILAC ratio, Pitrm1” value ([8]; competitor 25 μM) was 2.0.
`O=C(/C=C/c1cccnc1)NCCCCC1CCN(C(=O)c2ccccc2)CC1` [FK-866, reference compound] was tested, and the “SILAC ratio Rab1A” value ([1]; competitor 25 μM) was 1.1, the “SILAC ratio Slc25a1” value ([2]; competitor 25 μM) was 1.2 and the “SILAC ratio, Hsdl1” value ([3]; competitor 25 μM) was 1.0. The “SILAC ratio Surf4” value ([4]; competitor 25 μM) was 1.2, the “SILAC ratio, Zadh2” value ([5]; competitor 25 μM) was 12.6 and the “SILAC ratio, Qil1” value ([6]; competitor 25 μM) was 1.2. For the same molecule, the “SILAC ratio, Clptm1” value ([7]; competitor 25 μM) was 1.1 and the “SILAC ratio, Pitrm1” value ([8]; competitor 25 μM) was 1.4.
With `CN1CCN(C(=O)c2[nH]c3ccc([N+](=O)[O-])cc3c2-c2ccccc2)CC1` [MJN228, (4-Methylpiperazin-1-yl)(5-nitro-3-phenyl-1H-indol-2-yl)methanone] the “SILAC ratio Rab1A” value ([1]; competitor 10 μM) was 1.1, the “SILAC ratio Rab1A” value ([1]; competitor 25 μM) was 1.3 and the “SILAC ratio Rab1A” value ([1]; competitor 50 μM) was 1.3. The “SILAC ratio Rab1A” value ([1]; competitor 100 μM) was 1.3, the “SILAC ratio Slc25a1” value ([2]; competitor 10 μM) was 1.2 and the “SILAC ratio Slc25a1” value ([2]; competitor 25 μM) was 1.1. The “SILAC ratio Slc25a1” value ([2]; competitor 50 μM) was 1.5, the “SILAC ratio Slc25a1” value ([2]; competitor 100 μM) was 1.5 and the “SILAC ratio, Hsdl1” value ([3]; competitor 10 μM) was 1.1. For the same molecule, the “SILAC ratio, Hsdl1” value ([3]; competitor 25 μM) was 1.2, the “SILAC ratio, Hsdl1” value ([3]; competitor 50 μM) was 1.0 and the “SILAC ratio, Hsdl1” value ([3]; competitor 100 μM) was 1.5. The “SILAC ratio Surf4” value ([4]; competitor 10 μM) was 1.3, the “SILAC ratio Surf4” value ([4]; competitor 25 μM) was 1.4 and the “SILAC ratio Surf4” value ([4]; competitor 50 μM) was 1.7. The “SILAC ratio Surf4” value ([4]; competitor 100 μM) was 2.0, the “SILAC ratio, Zadh2” value ([5]; competitor 10 μM) was 1.4 and the “SILAC ratio, Zadh2” value ([5]; competitor 25 μM) was 1.5. The “SILAC ratio, Zadh2” value ([5]; competitor 50 μM) was 2.3, the “SILAC ratio, Zadh2” value ([5]; competitor 100 μM) was 6.0 and the “SILAC ratio, Qil1” value ([6]; competitor 10 μM) was 1.2. The “SILAC ratio, Qil1” value ([6]; competitor 25 μM) was 1.5, the “SILAC ratio, Qil1” value ([6]; competitor 50 μM) was 1.7 and the “SILAC ratio, Qil1” value ([6]; competitor 100 μM) was 2.5. For the same molecule, the “SILAC ratio, Clptm1” value ([7]; competitor 10 μM) was 1.3, the “SILAC ratio, Clptm1” value ([7]; competitor 25 μM) was 1.6 and the “SILAC ratio, Clptm1” value ([7]; competitor 50 μM) was 1.6. The “SILAC ratio, Clptm1” value ([7]; competitor 100 μM) was 2.5, the “SILAC ratio, Pitrm1” value ([8]; competitor 10 μM) was 1.6 and the “SILAC ratio, Pitrm1” value ([8]; competitor 25 μM) was 1.9. The “SILAC ratio, Pitrm1” value ([8]; competitor 50 μM) was 2.2 and the “SILAC ratio, Pitrm1” value ([8]; competitor 100 μM) was 3.4.
